# Measured values published in US8623908B2, “Use of tellurium compounds for inhibition of interleukin-converting enzyme” (Biomas Ltd., priority 2004, dated 2014).
# Read-outs that look alike come from different tables or passages of the source.
# What was measured:
# PBMC = test: Viability of treated cells by trypan blue exclusion; type: cell-based, human; settings: cells treated with various concentrations of AS101, SAC, 24 hours
# Description: (§1) Cells were first treated with various concentrations of AS101 and after 1 hour SAC was added. After 24 hours, supernatants were collected and evaluated for cytokine content. Viability at the end of these experiments, as assessed by tryptan blue exclusion method, was always found to be >95%.
# [1] = test system: active form of IL-18 in human HaCat keratinocytes; test: Western blot of intracellular active form of IL-18 in HaCat keratinocytes; type: cell-based; settings: AS101 1 μg/ml preincubated 2 hours, FIG. 3
# Description: Human HaCat keratinocytes were adjusted to 1×10^6 cells/ml and cultured at 37° C. and 7% CO2 in enriched Dulbecco's modified Eagle's medium (DMEM)(Biological industries, Kibbutz Beit Haemek, Israel), supplemented with 10% FCS (Biological industries).
# Total cell extracts were prepared by suspension in ice-cold lysis buffer containing 50 mM Tris (pH 8.0), 150 mM NaCl, 1% NP-40, 0.1% SDS, 5 mM EDTA, 0.2 mM PMSF, 50 mM NaF, […] sodium vanadate, […]. Cell lysates were boiled for 5 min and electrophoresed on 15% SDS-PAGE and were then blotted with monoclonal IL-18 antibodies (R&D Systems, Minneapolis, Minn.). Blots were developed using horseradish peroxidase-conjugated secondary antibodies and the ECL detection system (Amersham Pharmacia Biotech).
# IL-18 is […] produced by keratinocytes after treatment with LPS or PMA. In order to determine whether the inhibitory effect of AS101 on the formation of the active form of IL-18 is consistent and will repeat itself in another type of cell culture, Western Blot analysis of total cellular proteins from human HaCat keratinocytes was performed using anti-IL-18 antibodies. […]
# Cultured keratinocytes (1×10^6 cells/ml) were preincubated for 2 hours with AS101 (1 μg/ml) and then treated with PMA or LPS. Expression of IL-18 was assessed by WB analysis while α-tubulin was used as internal control. […]
# IL-18 = IL-18 levels in LPS-induced septic mice; type: in vivo, c57BL/6J mice; settings: 24 hours after LPS, FIG. 7a
# Description: (§2) For serum cytokine evaluation, PBS or AS101 was injected intraperitoneally (i.p.) 2 hours following LPS treatment. For survival experiments AS101 was injected i.p. daily at various concentrations starting 1 hour and up to 24 hours following LPS until the end of the experiment.
# (§3) The R&D Systems (Minneapolis, Minn.) IL-18 and IL-1β ELISA kits were used for the quantitative measurement of these cytokines either in supernatants or in mice sera.
# (§4) PBS (control) and AS101 at various concentrations were injected into c57BL/6J mice 2 hours following induction of sepsis by LPS (0.5 mg/mouse) treatment. 24 hours after LPS injection, mice were sacrificed and evaluated for plasma concentration of these cytokines in order to determine whether AS101 can inhibit production of IL-18 and IL-1β in vivo.
# [2] = test system: IL-18 secretion by human PBMC; test: SAC-induced secretion of IL-18 by PBMC (ELISA); type: cell-based
# Description: (§5) Human peripheral blood mononuclear cells (PBMC) were isolated from randomly selected healthy donors by Ficoll-Hypaque (Pharmacia, Piscataway, N.J.) density-gradient centrifugation. PBMC were adjusted to 2.5×10^6 cells/ml and cultured in enriched RPMI 1640 medium (Biological industries, Kibbutz Beit Haemek, Israel) with 10% FCS (Biological industries) at 37° C. and 7% CO2.
# as §1, §3
# (§6) PBMC (2.5×10^6 cells/ml) were treated with various concentrations of AS101 and after 1 hour were stimulated with SAC (10^−3 V/V). Results represent means±SE of three experiments **p<0.05 decrease vs SAC; *p<0.01 decrease vs SAC. Optimal concentration of SAC for cytokine secretion stimulation was 10^−3 v/v (data not shown).
# LPS-induced septic mice = test: Survival of LPS-induced septic mice; type: in vivo
# Description: as §2
# Data are presented as mean±SE. For comparisons of means of the various groups, the pairwise t test was used. Survival curves were statistically analyzed by comparing the cumulative percentage of survival using the Gehan-Wilcoxon test.
# In order to study the relationship between the above in vitro and in vivo results and the effect of AS101 on survival of mice following induction of sepsis, AS101 at a concentration of 10 μg/mouse was injected into LPS-induced septic mice at various time points after LPS (0.35 mg/mouse) treatment. Survival was monitored for 9 days.
# aspartic proteases = settings: Inorg. Chem. 37: 1704-1712, 1998; cited from earlier work
# [3] = test system: IL-18 mRNA in human HaCat keratinocytes; test: IL-18 mRNA levels in HaCat cells (RT-PCR); type: cell-based; settings: AS101 1 μg/ml preincubated 2 hours, FIG. 4b
# Description: Total RNA was prepared from treated or non treated human keratinocytes by using Tri-reagent (Sigma Aldrich, Rehovot, Israel). Oligo(dt) primed cDNA was synthesized using 2 μg of total RNA. mRNA/cDNA specific cytokine primer pairs were designed and PCR was performed using the following primer pairs (5 μM each): IL-18 (product 558 bp): 178-201 [5′-[…]-3′], 735-759 [5′-[…]-3′]. Cycling conditions were 95° C., 4 minutes; 94° C., 1 minute, 65° C., 1 minute; and 72° C., 1 minute for 29 cycles. GPDH (glyceraldehyde-phosphate-dehydrogenase, product 500 bp) was used as a control: [5′-[…]-3′],[5′-[…]-3′]. The amplified products were visualized using ethidium bromide staining.
# Changes at the IL-18 mRNA level were studied when keratinocytes were pretreated with AS101 (1 μg/ml) using optimal concentrations of PMA (10 ng/ml) and LPS (50 ng/ml). Total RNA was isolated from whole cell lysates. GAPDH was used as internal control. Cultured keratinocytes (1×10^6 cells/ml) were either untreated or treated with PMA at 5 ng/ml and 10 ng/ml (line 2 and 3 respectively) and with LPS at 40 ng/ml and 50 ng/ml (line 4 and 5 respectively).
# PCR products were amplified for 29 cycles.
# [4] = test system: IL-18 secretion by human PBMC; test: Role of nitric oxide: IL-18 inhibition in PBMC with L-NAME; type: cell-based; settings: L-NAME 20 nM 2 hours before AS101 0.5 μg/ml; SAC; 24 hours; FIG. 5
# Description: as §3
# L-NAME/D-NAME (20 nM) were delivered to PBMC (2.5×10^6 cells/ml)2 hours before AS101 (0.5 μg/ml). SAC (10^−3 v/v) was added 1 hour following AS101. Supernatants were collected after 24 hours and evaluated for IL-18 levels.
# [5] = test system: IL-1β secretion by human PBMC; test: SAC-induced secretion of IL-1β by PBMC (ELISA); type: cell-based
# Description: as §5, §1, §3, §6
# metallo proteases = settings: Inorg. Chem. 37: 1704-1712, 1998; cited from earlier work
# [6] = test system: human HaCat keratinocytes; test: IL-18 production in HaCat keratinocytes after AS101 treatment alone; type: cell-based
# Description: IL-18 production has a self-regulating negative feedback loop. This cytokine can down regulate its own production by inducing the production of a native inhibitor, IL-18BP, through an IFN-γ dependent mechanism. Since AS101 has been previously shown to increase IFN-γ due to the direct inhibition of the […], studies were carried out to determine whether the inhibitory effect of AS101 results from induction of IL-18BP directly and/or whether neutralization of IFN-γ would abrogate the inhibitory effect of AS101 on IL-18.
# serine proteases = settings: Inorg. Chem. 37: 1704-1712, 1998; cited from earlier work
# [7] = target: T1, caspase-1 (ICE-Interleukin-β-converting enzyme), rCaspase-1 (Homo sapiens, UniProt P29466); test: Caspase-1 activity enzymatic assay with colorimetric substrate Ac-YVAD-pNA; type: biochemical; settings: AS101 2.5, 5, 10 μM; 1 hour, 30° C., 405 nm; FIG. 1
# T1 construct: purchased Biomol International Industries L.P. Canada
# T1 sequence (P29466 120-297 limits assumed): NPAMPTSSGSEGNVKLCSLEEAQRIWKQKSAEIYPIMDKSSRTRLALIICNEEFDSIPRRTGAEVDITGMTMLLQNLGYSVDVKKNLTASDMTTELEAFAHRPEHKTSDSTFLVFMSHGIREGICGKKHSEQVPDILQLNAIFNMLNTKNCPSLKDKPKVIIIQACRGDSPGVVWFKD
# T1 sequence (P29466 317-404 limits assumed): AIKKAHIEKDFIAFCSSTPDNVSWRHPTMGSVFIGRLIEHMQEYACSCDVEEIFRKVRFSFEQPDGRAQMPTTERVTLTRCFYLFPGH
# Description: DTT, which is present in the commercial enzyme solution, interacts with AS101 and thus would interfere with the inhibition studies. Therefore removal of DTT from the enzyme solution prior to the enzymatic assay was necessary. Gel permeation chromatography was carried out at 4° C. 50 μl solution of commercial activated rCaspase-1 was loaded on a 1×15 cm Sephadex G-15 column (Pharmacia), preequilibrated with assay buffer containing: 50 mM Hepes, 100 mM NaCl, 0.1% CHAPS, 1 mM EDTA, 10% Glycerol at pH 7.4. The enzyme was eluted with the same buffer (degassed) at 0.5 ml/minute and 500 μl fractions were collected. The enzyme-substrate reaction was measured continuously with 1 min. intervals for a total time of 1 hour at 30° C. and was read at 405 nm. The total volume of the reaction was 100 μl and contained as following: 50 μl rCaspase-1 (0.8 U/μl), 25 μl colorimetric substrate (Ac-YVAD-pNA, 200 μM), 25 μl of AS101 at various concentrations (2.5 μM, 5 μM, 10 μM) in assay buffer.
# AS101 was tested for its possible inhibitory activity towards a member of the cysteine protease family, caspase-1 (ICE-Interleukin-β-converting enzyme). The enzymatic reaction was carried out with caspase-1 specific colorimetric substrate, Ac-YVAD-pNA, and in the absence or the presence of AS101 at different concentrations. The enzyme activity was tested for 1 hour and measured at 405 nm. […]
# [8] = test system: IL-18 secretion by human PBMC; test: Role of IFN-γ: IL-18 inhibition in PBMC with IFN-γ neutralizing antibody; type: cell-based; settings: anti IFN-γ antibody 0.1 μg/ml 2 hours before AS101 0.5 μg/ml; SAC; 24 hours; FIG. 6
# Description: as §3
# In order to investigate the possibility that enhancement of IFN-γ levels by AS101 might have a synergistic effect on IL-18 inhibition, rhIFN-γ neutralizing antibody (0.1 μg/ml) was delivered to PBMC (2.5×10^6 cells/ml) 2 hours before AS101 (0.5 μg/ml). SAC (10^−3 v/v) was added 1 hour following AS101. Supernatants were collected after 24 hours and evaluated for IL-18 levels.
# [9] = rats, cited from earlier work
# cysteine proteases = settings: via a catalytic thiol oxidation; Inorg. Chem. 37: 1704-1712, 1998; cited from earlier work
# IL-1β = IL-1β levels in LPS-induced septic mice; type: in vivo, c57BL/6J mice; settings: 24 hours after LPS, FIG. 7b
# Description: as §2, §3, §4
# [10] = AS101 5 μg/mouse i.p. 2 hours after LPS 0.5 mg/mouse
# [11] = AS101 10 μg/mouse i.p. 2 hours after LPS 0.5 mg/mouse
smiles,measurement,setting,value
"Cl[TeH]1(Cl)(Cl)OCCO1 [AS101, ammonium trichloro(dioxyethylene-O,O′)tellurate]",viability at the end of the experiments,PBMC,> 95%
same,amounts of the active form of IL-18,[1]; then LPS 50 ng/ml,produced a decrease in the amounts of the active form of IL-18
same,amounts of the active form of IL-18,[1]; then PMA 10 ng/ml,produced a decrease in the amounts of the active form of IL-18
same,IL-18 level in septic mice,IL-18; [10],significantly inhibited
same,IL-18 level in septic mice,IL-18; [11],significantly inhibited
same,SAC-induced secretion levels of IL-18,"[2]; AS101 1 hour before SAC 10^-3 v/v, after 24 hours, FIG. 2a",decrease SAC-induced secretion levels
same,concentration from which the decrease in IL-18 secretion is significant (p<0.05),"[2]; SAC, 24 hours",≥ 0.5 µg/mL
same,effect on survival of septic mice,"LPS-induced septic mice; AS101 10 μg/mouse i.p. daily, injected after LPS 0.35 mg/mouse, survival monitored 9 days, FIG. 8",beneficial effect
same,optimal dose for survival,LPS-induced septic mice; injected 6 hours following LPS and thereafter every day,10 μg/mouse
same,inhibition of aspartic proteases,aspartic proteases,no inhibition
same,IL-18 mRNA levels,[3]; then LPS 50 ng/ml,Changes in mRNA levels were not detected
same,IL-18 mRNA levels,[3]; then PMA 10 ng/ml,Changes in mRNA levels were not detected
same,inhibitory effect on IL-18 secretion in the presence of NOS inhibitor L-NAME,[4],not diminished
same,SAC-induced secretion levels of IL-1β,"[5]; AS101 1 hour before SAC 10^-3 v/v, after 24 hours, FIG. 2b",decrease SAC-induced secretion levels
same,concentration from which the decrease in IL-1β secretion is significant (p<0.05),"[5]; SAC, 24 hours",≥ 0.5 µg/mL
same,inhibition of metallo proteases,metallo proteases,no inhibition
same,induction of IL-18 production by AS101 treatment,[6],not able to induce IL-18 production
same,inhibition of serine proteases,serine proteases,no inhibition
same,effect on ICE activity (percent residual enzymatic activity),[7],"inhibits ICE activity directly, in a concentration-dependant manner"
same,IL-18 inhibition after neutralization of IFN-γ,[8],does not abrogate IL-18 inhibition
same,LD50 relative to the immunologically effective dose,[9]; intramuscular administration,500-1000 folds
same,LD50 relative to the immunologically effective dose,[9]; intravenous administration,500-1000 folds
same,inhibition of cysteine proteases,cysteine proteases,inhibits cysteine proteases
same,IL-1β level in septic mice,IL-1β; [10],significantly inhibited
same,IL-1β level in septic mice,IL-1β; [11],significantly inhibited
